# Data as given in article PMC9995496, “A screen for MeCP2-TBL1 interaction inhibitors using a luminescence-based assay” (Scientific Reports, 2023).
# Structures can show the parent of a compound that is named as a salt.
# Tested on: PRKACA-PRKAR2A interaction (SmBiT-PRKACA / LgBiT-PRKAR2A), protein kinase A
# Design: NanoLuc complementation counter-screen in cell extract, PRKACA with PRKAR2A, loss of luminescence, detects NanoLuc interference
# Details: 0.5 h, 20 µM; inhibitor
row,Structure (SMILES),Inh (PKA) [%]
1,"O=C(Oc1ccc([N+](=O)[O-])cc1)N1CCC(C(O)(c2ccc3c(c2)OCO3)c2ccc3c(c2)OCO3)CC1 [UM0142396:01, JZL184]",16.72

# Same assay, conditions: counter-screen for NanoLuc interference, 0.5 h, 20 µM, inhibitor, Inh (PKA)
row,Inh (PKA) [%],Structure (SMILES)
1,-0.9808,"NCCc1c[nH]cn1 [UM0142362:01, Histamine Phosphate]"
2,11.28,"O=C(O)Cc1ccccc1Nc1c(Cl)cccc1Cl [UM0142393:01, Diclofenac Diethylamine]"
3,0.7131,"CCC(CC)[C@H](NC(C)=O)[C@@H]1[C@H](O)[C@@H](C(=O)O)C[C@H]1NC(=N)N [UM0142420:01, Peramivir Trihydrate]"

# Same assay, conditions: counter-screen for NanoLuc interference; 0.5 h, 20 µM; inhibitor
row,Structure (SMILES),Inh (PKA) [%]
1,"CN(C)CC/C=C1/c2ccccc2COc2ccc(CC(=O)O)cc21 [UM0142309:01, Olopatadine HCl]",-1.243
2,"CCC(CC)(NC(=O)C(C)C)C(=O)N[C@@H](CCCN=C(N)N)C(=O)NC1(C(=O)NC(c2ccc(F)cc2)c2ccc(F)cc2)CCCC1 [UM0142313:01, MM-102]",12.23
3,"O=C(c1ccc(Nc2nccc(-c3cc4ccccc4s3)n2)cc1)N1CCC(N2CCCC2)CC1 [UM0142314:01, IKK-16 (IKK Inhibitor VII)]",16.61
4,"C1=N/C2=N/c3ccc(OCCN4CCCC4)c(c3)COC/C=C/COCc3cccc(c3)C(=C1)N2 [UM0142316:01, Pacritinib (SB1518)]",30.05
5,"Cc1ccc(C(=O)N(CCCN)[C@@H](c2oc3cc(Cl)ccc3c(=O)c2Cc2ccccc2)C(C)C)cc1 [UM0142317:01, SB743921]",14.68
6,"Nc1nc(N)nc(-c2cc(Cl)ccc2Cl)n1 [UM0142318:01, Irsogladine]",5.104
7,"O=C(O[C@H]1C[N+]2(CCCOc3ccccc3)CCC1CC2)C(O)(c1cccs1)c1cccs1 [UM0142325:01, Aclidinium Bromide]",1.77
8,"C[N+]1(C)[C@@H]2C[C@@H](OC(=O)[C@H](CO)c3ccccc3)C[C@H]1[C@@H]1O[C@@H]12 [UM0142326:01, Methscopolamine]",1.249
9,"Cc1cc(Nc2ccc(NC(=O)c3ccc(Nc4ccnc5ccccc45)cc3)cc2)nc(N)n1 [UM0142330:01, SGI-1027]",9.462
10,"CNC(=O)Nc1ccc(-c2nc(N3CC4CCC(C3)O4)c3cnn(C4CCC5(CC4)OCCO5)c3n2)cc1 [UM0142336:01, WYE-125132 (WYE-132)]",31.62
11,"Nc1c(CC(=O)O)cccc1C(=O)c1ccccc1 [UM0142341:01, Amfenac Sodium Monohydrate]",3.127
12,"Nc1c(CC(=O)O)cccc1C(=O)c1ccc(Br)cc1 [UM0142342:01, Bromfenac Sodium]",5.05
13,"CC(C(=O)O)c1ccc2c(c1)[nH]c1ccc(Cl)cc12 (stereo not shown) [UM0142344:01, Carprofen]",82.74
14,"CO/N=C(\C(=O)N[C@@H]1C(=O)N2C(C(=O)O)=C(CSc3nc(=O)c(O)nn3C)CS[C@H]12)c1csc(N)n1 [UM0142345:01, Ceftriaxone Sodium Trihydrate]",3.455
15,"Cc1c(O)c(=O)ccn1C [UM0142352:01, Deferiprone]",0.006466
16,"CN(C)CCOC(C)(c1ccccc1)c1ccccn1 (stereo not shown) [UM0142354:01, Doxylamine Succinate]",1.104
17,"CCCCCN(C)CCC(O)(P(=O)(O)O)P(=O)(O)O [UM0142363:01, Ibandronate sodium]",1.018
18,"CC(C)CC(N)=O [UM0142364:01, Isovaleramide]",-0.438

row,Structure (SMILES),Inh (PKA) [%]
1,"CN(C)c1ccc(O)c2c1C[C@H]1C[C@H]3[C@H](N(C)C)C(O)=C(C(N)=O)C(=O)[C@@]3(O)C(O)=C1C2=O [UM0142369:01, Minocycline HCl]",5.155
2,"CCN[C@@H]1C[C@H](N)[C@@H](O[C@H]2OC(CN)=CC[C@H]2N)[C@H](O)[C@H]1O[C@H]1OC[C@](C)(O)[C@H](NC)[C@H]1O [UM0142372:01, Netilmicin Sulfate]",-0.6216
3,"CC[C@@H]1/C=C(\C)C[C@H](C)C[C@H](OC)[C@H]2O[C@@](O)(C(=O)C(=O)N3CCCC[C@H]3C(=O)O[C@H](/C(C)=C/[C@@H]3CC[C@H](Cl)[C@H](OC)C3)[C@H](C)[C@@H](O)CC1=O)[C@H](C)C[C@@H]2OC [UM0142376:01, Pimecrolimus]",0.5953
4,"Nc1ccc2cc3ccc(N)cc3nc2c1 [UM0142377:01, Proflavine Hemisulfate]",0.7107
5,"NC[C@H]1O[C@H](O[C@H]2[C@H](O[C@@H]3O[C@H](CO)[C@@H](O)[C@H]3O)[C@@H](O)[C@H](N)C[C@@H]2N)[C@H](N)[C@@H](O)[C@@H]1O [UM0142378:01, Ribostamycin Sulfate]",35.19
6,"Cc1ccc(C(=O)C(C)CN2CCCCC2)cc1 (stereo not shown) [UM0142383:01, Tolperisone HCl]",-1.099
7,"C=CCNC(N)=S [UM0142388:01, Allylthiourea]",3.519
8,"C[C@]12CC[C@@H]3c4ccc(OC(=O)c5ccccc5)cc4CC[C@H]3[C@@H]1CC[C@@H]2O [UM0142395:01, Estradiol Benzoate]",19.47
9,"CN(C)C(=N)NC(=N)N [UM0142397:01, Metformin HCl]",1.975
10,"Cc1ccc(S(=O)(=O)Cc2nc(-c3ccc(C(=O)NCc4cccnc4)cc3)oc2C)cc1 [UM0142406:01, STF-118804]",1.65
11,"CN[C@@H]1[C@H](O[C@H]2[C@H](O[C@H]3[C@H](O)[C@@H](O)[C@H](N=C(N)N)[C@@H](O)[C@@H]3N=C(N)N)O[C@@H](C)[C@]2(O)C=O)O[C@@H](CO)[C@H](O)[C@H]1O [UM0142407:01, Streptomycin sulfate]",1.585
12,"CN(C)C(=O)COC(=O)Cc1ccc(OC(=O)c2ccc(NC(=N)N)cc2)cc1 [UM0142412:01, Camostat Mesilate]",0.7864
13,"C=C[C@H]1CN2CC[C@H]1C[C@H]2[C@H](O)c1ccnc2ccc(OC)cc12 [UM0142415:01, Quinine HCl Dihydrate]",1.874
14,"Cc1cccc(Nc2nc(-c3ccncc3)cs2)c1 [UM0142421:01, STF-62247]",25.96
15,"Nc1ncnc2c1c(-c1cnc3[nH]ccc3c1)nn2C1CCCC1 [UM0142428:01, PP121]",28.88
16,"COCCOc1ccc2c(c1)ncn2-c1ccc2cccc(N3CCC(N)CC3)c2n1 [UM0142429:01, CP-673451]",21.57
17,"CNc1nc(-c2ccc3c(N)n[nH]c3c2)cc(N2C[C@@H](C(=O)NC3CCCCC3)CC[C@H]2C)n1 [UM0142430:01, GSK2334470]",2.681

# More lines, now with the values ahead:
row,Inh (PKA) [%],Structure (SMILES)
1,90.14,"O=C(Nc1cc(C(F)(F)F)cc(C(F)(F)F)c1)c1cc(Cl)ccc1O [UM0142315:01, IMD 0354]"
2,-1.734,"C[N+](C)(C)CCOC(=O)CCC(=O)OCC[N+](C)(C)C [UM0142319:01, Succinylcholine Chloride Dihydrate]"
3,15.14,"COc1cc(OC)c(NC(=O)Nc2cc(C)on2)cc1Cl [UM0142328:01, PNU-120596]"
4,15.12,"Cn1c(=O)c(F)c(Nc2ccc(I)cc2F)c2c(=O)n(C[C@@H](O)CO)cnc21 [UM0142329:01, TAK-733]"
5,7.744,"c1cncc(CN2CCC(n3ncc4c(N5CCOCC5)nc(-c5ccc6[nH]ccc6c5)nc43)CC2)c1 [UM0142335:01, WAY-600]"
6,14.43,"Cc1ccc(NCCCc2ccccc2)c(N)c1 [UM0142338:01, JSH-23]"
7,5.222,"CCOC(CN1CCN(CC(C)C(=O)c2ccccc2)CC1)c1ccccc1 (stereo not shown) [UM0142356:01, Eprazinone 2HCl]"
8,6.18,"COC(=O)Nc1nc2cc(C(=O)c3ccc(F)cc3)ccc2[nH]1 [UM0142358:01, Flubendazole]"
9,7.218,"CCC(=O)O[C@]1(C(=O)CCl)[C@@H](C)C[C@H]2[C@@H]3C[C@H](F)C4=CC(=O)C=C[C@]4(C)[C@@]3(F)[C@@H](O)C[C@@]21C [UM0142361:01, Halobetasol Propionate]"
10,1.127,"NC[C@@H]1O[C@H](O[C@H]2[C@@H](O)[C@H](O[C@@H]3[C@@H](O)[C@H](N)C[C@H](N)[C@H]3O[C@H]3O[C@H](CN)[C@@H](O)[C@H](O)[C@H]3N)O[C@@H]2CO)[C@H](N)[C@@H](O)[C@@H]1O [UM0142371:01, Neomycin sulfate]"
11,2.588,"NC[C@H]1CC[C@H](C(=O)O)CC1 [UM0142384:01, Tranexamic Acid]"
12,2.774,"CCC[S+]([O-])c1ccc2[nH]c(NC(=O)OC)nc2c1 (stereo not shown) [UM0142387:01, Albendazole Oxide]"
13,1.229,"Oc1ccc(OC2CCCCO2)cc1 (stereo not shown) [UM0142392:01, Deoxyarbutin]"
14,2.079,"O=C(NC(Cc1cc(=O)[nH]c2ccccc12)C(=O)O)c1ccc(Cl)cc1 (stereo not shown) [UM0142401:01, Rebamipide]"
15,4.258,"C=C[C@]1(C)C[C@@H](OC(=O)CS[C@@H]2C[C@H]3CC[C@@H](C2)N3C)[C@]2(C)[C@H](C)CC[C@]3(CCC(=O)[C@H]32)[C@@H](C)[C@@H]1O [UM0142402:01, Retapamulin]"
16,0.01917,"CCCN1CCCC[C@H]1C(=O)Nc1c(C)cccc1C [UM0142404:01, Ropivacaine HCl]"
17,1.508,"CC1(C)[C@H](C(=O)O)N2C(=O)C[C@H]2S1(=O)=O [UM0142408:01, Sulbactam sodium]"
18,-0.5508,"CCN=C1N[C@@H]2[C@@H](O)[C@H](O)[C@@H](CO)O[C@@H]2S1 [UM0142409:01, Thiamet G]"
19,12.98,"C=C1CC[C@H](O)C/C1=C/C=C1\CCC[C@]2(C)[C@@H]([C@H](C)CCCC(C)(C)O)CC[C@@H]12 [UM0142419:01, Calcifediol]"
20,10.76,"C=C1/C(=C\C=C2/CCC[C@]3(C)[C@@H]([C@H](C)CCCC(C)C)CC[C@@H]23)C[C@@H](O)C[C@@H]1O [UM0142422:01, Alfacalcidol]"
21,10.54,"Cc1cc(OCc2nnc(SC3CCCC3)n2-c2cccnc2)ccc1-c1ccc(S(C)(=O)=O)cc1 [UM0142426:01, NMS-873]"
22,-0.3115,"Cc1cccc(CC(=O)N2CCc3c2ccc(-c2cn(C)c4ncnc(N)c24)c3F)n1 [UM0142431:01, GSK2656157]"
